Test results taken from the NIST ThermoML archive (doi:10.1021/acs.jced.6b00542).

Assay: xn = mol fraction of the nth substance listed
Details: Liquid; for mass density / viscosity: 102 kPa; for mass density: Vibrating tube method; for speed of sound: 100 kPa, Frequency=3 MHz, Sing-around technique in a fixed-path interferometer; for viscosity: Concentric cylinders viscometry

CCCCc1ccccc1 [butylbenzene] + CCCCCCCCCCCCCCCC
Details | mass density [kg/m3] | speed of sound [m/s] | viscosity [mPa·s]
323.15 K, x1 = 0.1586 | 759.88 | – | –
323.15 K, x1 = 0.2971 | 767.24 | – | –
323.15 K, x1 = 0.4067 | 773.97 | – | –
323.15 K, x1 = 0.5293 | 782.69 | – | –
323.15 K, x1 = 0.6278 | 790.88 | – | –
323.15 K, x1 = 0.7158 | 799.21 | – | –
323.15 K, x1 = 0.7981 | 808.17 | – | –
323.15 K, x1 = 0.8709 | 817.16 | – | –
323.15 K, x1 = 0.938 | 826.58 | – | –
323.15 K, x1 = 1 | 836.34 | – | –
333.15 K, x1 = 0.1586 | 752.86 | 1208.2 | 1.37
333.15 K, x1 = 0.2971 | 760.13 | 1204.9 | 1.24
333.15 K, x1 = 0.4067 | 766.76 | 1202.5 | 1.13
333.15 K, x1 = 0.5293 | 775.36 | 1200.2 | 1.02
333.15 K, x1 = 0.6278 | 783.43 | 1198.6 | 0.929
333.15 K, x1 = 0.7158 | 791.64 | 1197.8 | 0.856
333.15 K, x1 = 0.7981 | 800.47 | 1197.9 | 0.787
333.15 K, x1 = 0.8709 | 809.32 | 1198.3 | 0.731
333.15 K, x1 = 0.938 | 818.61 | 1199.6 | 0.68
333.15 K, x1 = 1 | 828.21 | 1201.4 | 0.636
343.15 K, x1 = 0.1586 | 745.8 | – | 1.18
343.15 K, x1 = 0.2971 | 752.9 | – | 1.07
343.15 K, x1 = 0.4067 | 759.5 | – | 0.986
343.15 K, x1 = 0.5293 | 767.9 | – | 0.893
343.15 K, x1 = 0.6278 | 775.9 | – | 0.821
343.15 K, x1 = 0.7158 | 783.9 | – | 0.757
343.15 K, x1 = 0.7981 | 792.7 | – | 0.702
343.15 K, x1 = 0.8709 | 801.4 | – | 0.653
343.15 K, x1 = 0.938 | 810.6 | – | 0.61
343.15 K, x1 = 1 | 819.9 | – | 0.571
353.15 K, x1 = 0.1586 | 738.8 | – | 1.03
353.15 K, x1 = 0.2971 | 745.8 | – | 0.939
353.15 K, x1 = 0.4067 | 752.3 | – | 0.868
353.15 K, x1 = 0.5293 | 760.5 | – | 0.792
353.15 K, x1 = 0.6278 | 768.4 | – | 0.731
353.15 K, x1 = 0.7158 | 776.2 | – | 0.677
353.15 K, x1 = 0.7981 | 784.9 | – | 0.63
353.15 K, x1 = 0.8709 | 793.5 | – | 0.588
353.15 K, x1 = 0.938 | 802.5 | – | 0.55
353.15 K, x1 = 1 | 811.7 | – | 0.516
363.15 K, x1 = 0.1586 | 731.6 | – | 0.91
363.15 K, x1 = 0.2971 | 738.6 | – | 0.833
363.15 K, x1 = 0.4067 | 744.9 | – | 0.773
363.15 K, x1 = 0.5293 | 753.1 | – | 0.708
363.15 K, x1 = 0.6278 | 760.8 | – | 0.656
363.15 K, x1 = 0.7158 | 768.5 | – | 0.61
363.15 K, x1 = 0.7981 | 777.1 | – | 0.569
363.15 K, x1 = 0.8709 | 785.4 | – | 0.532
363.15 K, x1 = 0.938 | 794.3 | – | 0.5
363.15 K, x1 = 1 | 803.4 | – | 0.469
373.15 K, x1 = 0.1586 | 724.5 | – | 0.811
373.15 K, x1 = 0.2971 | 731.3 | – | 0.746
373.15 K, x1 = 0.4067 | 737.5 | – | 0.695
373.15 K, x1 = 0.5293 | 745.5 | – | 0.639
373.15 K, x1 = 0.6278 | 753.1 | – | 0.594
373.15 K, x1 = 0.7158 | 760.8 | – | 0.553
373.15 K, x1 = 0.7981 | 769.1 | – | 0.517
373.15 K, x1 = 0.8709 | 777.5 | – | 0.484
373.15 K, x1 = 0.938 | 786.1 | – | 0.456
373.15 K, x1 = 1 | 795 | – | 0.43
